Experimental data: patent publication US6706663B2, “Herbicidal 3-heterocyclic substituted benzisothiazole and benzisoxazole compounds” (Wyeth, priority 2000, dated 2004)

Experiments:
[1] = test system: GALAP (Galium aparine); test: Postemergence herbicidal evaluation; type: in vivo; details: postemergence
Method in brief: (§1)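 Seedlings grown for about two weeks were sprayed postemergence and then kept under standard greenhouse care. Injury was rated visually 4–5 weeks after treatment on a 0–9 scale against untreated controls, and ratings from repeat tests were averaged.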

[2] = test system: CYPIR (Cyperus iria); test: Flooded paddy, preemergence weed control; type: in vivo; details: rated 3-4 weeks after treatment, 0-9 rating scale
Method in brief: (§2)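 Visual 0–9 ratings versus controls scored stand, vigor, malformation, size, chlorosis and overall appearance. Plants grew from seeds or propagating organs sown 0.5 cm deep in silt loam, with water held 1.5–3 cm above the soil for the whole test under greenhouse care.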

[3] = test system: ZEAMX (Corn, Field); test: Preemergence herbicidal evaluation; type: in vivo, Zea mays, L.; details: rated 4-5 weeks after treatment
[4] = test system: IPOHE (Ipomoea hederacea); test: Preemergence herbicidal evaluation; type: in vivo, (L.) Jacq.; details: rated 4-5 weeks after treatment
[5] = test system: CASOB (Cassia obtusifolia); test: Postemergence herbicidal evaluation; type: in vivo, L.; details: postemergence
Method in brief: as §1

[6] = test system: CHEAL (Chenopodium album); test: Postemergence herbicidal evaluation; type: in vivo, L.; details: postemergence
Method in brief: as §1

[7] = test system: AMBEL (Ambrosia artemisifolia); test: Postemergence herbicidal evaluation; type: in vivo, L.; details: postemergence
Method in brief: as §1

[8] = test system: GLXMAW (Soybean, Williams); test: Preemergence herbicidal evaluation; type: in vivo, Glycine max, (L.) Merr. cv Williams; details: rated 4-5 weeks after treatment
[9] = test system: ABUTH (Abutilon theophrasti); test: Postemergence herbicidal evaluation; type: in vivo, Medic.; details: postemergence
Method in brief: as §1

[10] = test system: SAGPY (Sagittaria pygmaea); test: Flooded paddy, preemergence weed control; type: in vivo, L.; details: rated 3-4 weeks after treatment, 0-9 rating scale
Method in brief: as §2

[11] = test system: ORYSAT (Rice, Tebonnet); test: Flooded paddy, post-transplant rice tolerance; type: in vivo, Oryza sativa, (L.) Tebonnet; details: flooded paddy, post-transplant rice, rated 3-4 weeks after treatment, 0-9 rating scale
Method in brief: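 Steps: transplant two ten-day-old seedlings into silt loam; flood to 1.5-3 cm above soil; apply herbicide post-transplant; maintain water on greenhouse benches; rate stand, vigor, malformation, size and chlorosis on a 0-9 visual scale versus control.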

| SMILES | GALAP herbicidal rating ([1]; rate 0.0320 kg/ha) | GALAP herbicidal rating ([1]; rate 0.0620 kg/ha) | herbicidal rating, CYPIR ([2]; rate 0.0080 kg/ha) | herbicidal rating, CYPIR ([2]; rate 0.0320 kg/ha) | herbicidal rating, CYPIR ([2]; rate 0.1250 kg/ha) | Preemergence herbicidal rating ZEAMX ([3]; Rate 0.0620 kg/ha) | Preemergence herbicidal rating ZEAMX ([3]; Rate 0.1250 kg/ha) | Preemergence herbicidal rating ZEAMX ([3]; Rate 0.2500 kg/ha) | Preemergence herbicidal rating IPOHE ([4]; Rate 0.0620 kg/ha) | Preemergence herbicidal rating IPOHE ([4]; Rate 0.1250 kg/ha) | Preemergence herbicidal rating IPOHE ([4]; Rate 0.2500 kg/ha) | CASOB herbicidal rating ([5]; rate 0.0320 kg/ha) | CASOB herbicidal rating ([5]; rate 0.0620 kg/ha) | CHEAL herbicidal rating ([6]; rate 0.0320 kg/ha) | CHEAL herbicidal rating ([6]; rate 0.0620 kg/ha) | AMBEL herbicidal rating ([7]; rate 0.0320 kg/ha) | AMBEL herbicidal rating ([7]; rate 0.0620 kg/ha) | Preemergence herbicidal rating GLXMAW ([8]; Rate 0.0620 kg/ha) | Preemergence herbicidal rating GLXMAW ([8]; Rate 0.1250 kg/ha) | Preemergence herbicidal rating GLXMAW ([8]; Rate 0.2500 kg/ha) | further results |
| --- | --- | --- | --- | --- | --- | --- | --- | --- | --- | --- | --- | --- | --- | --- | --- | --- | --- | --- | --- | --- | --- |
| CC(C)C1COC(c2nsc3ccc(-n4c(=O)cc(C(F)(F)F)n(C)c4=O)cc23)=N1 (centres unmarked) [Compound 74, 3-[3-(4-isopropyl-2-oxazolin-2-yl)-1,2-benzisothiazol-5-yl]-1-methyl-6-(trifluoromethyl)uracil] | 6.0 | 8.0 | 0.0 | 6.0 | 9.0 | 2.0 | 2.0 | 4.0 | 0.0 | 0.0 | 8.0 | 2.0 | 1.0 | 9.0 | 9.0 | 9.0 | 9.0 | 1.0 | 1.0 | 9.0 | ABUTH herbicidal rating ([9]; rate 0.0320 kg/ha): 9.0; ABUTH herbicidal rating ([9]; rate 0.0620 kg/ha): 9.0; herbicidal rating, SAGPY ([10]; rate 0.0080 kg/ha): 0.0; herbicidal rating, SAGPY ([10]; rate 0.0320 kg/ha): 1.5; herbicidal rating, SAGPY ([10]; rate 0.1250 kg/ha): 7.0; herbicidal rating, ORYSAT (rice tolerance) ([11]; rate 0.0080 kg/ha): 1.5; herbicidal rating, ORYSAT (rice tolerance) ([11]; rate 0.0320 kg/ha): 4.0; herbicidal rating, ORYSAT (rice tolerance) ([11]; rate 0.1250 kg/ha): 6.0 |
| Cn1c(C(F)(F)F)cc(=O)n(-c2ccc3snc(C4=NCCO4)c3c2)c1=O [Compound 75, 1-methyl-3-[3(2-oxazolin-2-yl)-1,2-benzisothiazol-5-yl]-6-(trifluoromethyl)uracil] | 5.0 | 7.0 | 0.0 | 7.0 | 9.0 | 1.0 | 2.0 | 3.0 | 0.0 | 4.0 | 7.0 | 2.0 | 2.0 | 7.0 | 7.0 | 9.0 | 9.0 | 0.0 | 1.0 | 4.0 | ABUTH herbicidal rating ([9]; rate 0.0320 kg/ha): 9.0; ABUTH herbicidal rating ([9]; rate 0.0620 kg/ha): 9.0; herbicidal rating, SAGPY ([10]; rate 0.0080 kg/ha): 0.0; herbicidal rating, SAGPY ([10]; rate 0.0320 kg/ha): 4.5; herbicidal rating, SAGPY ([10]; rate 0.1250 kg/ha): 9.0; herbicidal rating, ORYSAT (rice tolerance) ([11]; rate 0.0080 kg/ha): 2.5; herbicidal rating, ORYSAT (rice tolerance) ([11]; rate 0.0320 kg/ha): 4.5; herbicidal rating, ORYSAT (rice tolerance) ([11]; rate 0.1250 kg/ha): 6.0 |
| C=CC1COC(c2nsc3ccc(-n4c(=O)cc(C(F)(F)F)n(C)c4=O)cc23)O1 (centres unmarked) [Compound 76, 1-methyl-6-(trifluoromethyl)-3-[3-(4-vinyl-1,3-dioxolan-2-yl)-1,2-benzisothiazol-5-yl]uracil] | 5.0 | 7.0 | 7.0 | 8.0 | 9.0 | 8.5 | 8.5 | 9.0 | 7.5 | 9.0 | 9.0 | 4.0 | 5.0 | 9.0 | 9.0 | 9.0 | 9.0 | 7.5 | 9.0 | 9.0 | ABUTH herbicidal rating ([9]; rate 0.0320 kg/ha): 9.0; ABUTH herbicidal rating ([9]; rate 0.0620 kg/ha): 9.0; herbicidal rating, SAGPY ([10]; rate 0.0080 kg/ha): 0.0; herbicidal rating, SAGPY ([10]; rate 0.0320 kg/ha): 0.0; herbicidal rating, SAGPY ([10]; rate 0.1250 kg/ha): 9.0; herbicidal rating, ORYSAT (rice tolerance) ([11]; rate 0.0080 kg/ha): 2.0; herbicidal rating, ORYSAT (rice tolerance) ([11]; rate 0.0320 kg/ha): 3.0; herbicidal rating, ORYSAT (rice tolerance) ([11]; rate 0.1250 kg/ha): 9.0 |
| CCCC1COC(c2nsc3ccc(-n4c(=O)cc(C(F)(F)F)n(C)c4=O)cc23)O1 (centres unmarked) [Compound 77, 1-methyl-3-[3-(4-propyl-1,3-dioxolan-2-yl)-1,2-benzisothiazol-5-yl]-6-(trifluoromethyl)uracil] | 4.0 | 7.0 | 0.0 | 7.0 | 9.0 | 7.0 | 7.5 | 8.5 | 3.0 | 4.0 | 7.5 | 4.0 | 6.0 | 9.0 | 9.0 | 9.0 | 9.0 | 4.0 | 6.0 | 9.0 | ABUTH herbicidal rating ([9]; rate 0.0320 kg/ha): 9.0; ABUTH herbicidal rating ([9]; rate 0.0620 kg/ha): 9.0; herbicidal rating, SAGPY ([10]; rate 0.0080 kg/ha): 0.0; herbicidal rating, SAGPY ([10]; rate 0.0320 kg/ha): 0.0; herbicidal rating, SAGPY ([10]; rate 0.1250 kg/ha): 5.0; herbicidal rating, ORYSAT (rice tolerance) ([11]; rate 0.0080 kg/ha): 0.0; herbicidal rating, ORYSAT (rice tolerance) ([11]; rate 0.0320 kg/ha): 3.0; herbicidal rating, ORYSAT (rice tolerance) ([11]; rate 0.1250 kg/ha): 7.0 |
| Cn1c(C(F)(F)F)cc(=O)n(-c2ccc3snc(C4OCC(c5ccccc5)O4)c3c2)c1=O (centres unmarked) [Compound 78, 1-methyl-3-[3-(4-phenyl-1,3-dioxolan-2-yl)-1,2-benzisothiazol-5-yl]-6-(trifluoromethyl)uracil] | 4.0 | 7.0 | 0.0 | 9.0 | 9.0 | 3.0 | 3.5 | 6.0 | 2.0 | 5.0 | 6.0 | 9.0 | 6.0 | 9.0 | 9.0 | 9.0 | 9.0 | 2.5 | 6.0 | 5.0 | ABUTH herbicidal rating ([9]; rate 0.0320 kg/ha): 9.0; ABUTH herbicidal rating ([9]; rate 0.0620 kg/ha): 9.0; herbicidal rating, SAGPY ([10]; rate 0.0080 kg/ha): 0.0; herbicidal rating, SAGPY ([10]; rate 0.0320 kg/ha): 1.0; herbicidal rating, SAGPY ([10]; rate 0.1250 kg/ha): 9.0; herbicidal rating, ORYSAT (rice tolerance) ([11]; rate 0.0080 kg/ha): 4.0; herbicidal rating, ORYSAT (rice tolerance) ([11]; rate 0.0320 kg/ha): 5.7; herbicidal rating, ORYSAT (rice tolerance) ([11]; rate 0.1250 kg/ha): 8.5 |
